Measured values reported in patent US20040132648A1, “Remedies and/or preventives for conformational diseases” (priority 2001, published 2004).
Where two headings read alike, the source gives them in different places.

What was measured:
PC12 cells [1] = format: cell-based, rat
PC12 cells [2] = test: Neuroprotective action against β-amyloid, viable cell count / survival rate by WST-8 method; format: cell-based, rat; set-up: key to Neuroprotective action: +, P < 0.05 when compared with the no neuropeptide-added group; details: for relationship between concentration and neuroprotective action against β-amyloid: neuropeptides at various concentrations
Method: An experiment was performed similarly to Example 5, and then the neuroprotective action against cell death by β-amyloid of the following PACAP-related neuropeptides (peptides 1, 2, 4, 5, 7, 8, 15, 16, 17, 19, 21, 26, 27, 28, 29, 30, 31, 32, 33, 34, 35, 36, 37, 38 and 39) and VIP-related neuropeptides (peptides 3, 9, 10, 11, 12, 13, 14, 18, 20, 22, 23, 24 and 25) was confirmed. Specifically, amyloid (50 μM) and each of the various PACAP-related neuropeptides and VIP-related neuropeptides were added to the cultured PC12 cells. The number of […] calculated by the WST-8 method, so that comparison and examination was performed for the neuroprotective action of these various peptides against amyloid. If the neuropeptides had neuroprotective action, a clear difference in viable cell count can be observed between cases in which neuropeptides were added and cases in which neuropeptides were not added. In PC12 cells added with each of the various neuropeptides, a case wherein a higher cell survival rate (P<0.05) was observed compared with groups in which neuropeptides had not been added, was determined as having neuroprotective action. The results are shown in Table 1 and Table 2. β-amyloid was added to PC12 cells that had been cultured similarly to Example 5. At this time, neuropeptides PACAP27, VIP and humanin, and a cell-permeable cAMP derivative were allowed to respectively co-exist, so that the effect of these neuropeptides against cell death by β-amyloid was confirmed. Cell death was examined by evaluating cell count using the WST-8 method, and then by calculating cell survival rate. […] In the presence of β-amyloid, approximately 70% of the cells died. […] The neuroprotective action of humanin, a recently found human-derived neuroprotective substance (Proc Natl Acad Sci USA (2001) 98 (11) 6336-6341), was also examined. […] At this time, neuropeptides at various concentrations were allowed to co-exist, so that the relationship between the neuroprotective action and the concentration was investigated. Cells were calculated by the WST-8 method, and then the extent to which cell death by β-amyloid could be attenuated was expressed numerically.

PC12 cells [3] = test system: PC12 cells
caspase-3 = test: Caspase-3 activating action of β-amyloid and its suppression (Ac-DEVD-AMC substrate); format: cell-based, rat; details: 10^−5 M β-amyloid; PACAP 10^−9 M; FIG. 7
Method: PC12 cells that had been cultured almost similarly to Example 4 were cultured in a 24-well plate (2×10^5 cells/well). 10^−5 M β-amyloid was added to the plate. At this time, cAMP derivative (10^−4 M) and neuropeptide PACAP (10^−9 M) were added respectively, and then the action of activating caspase-3, an apoptosis-related enzyme, was examined. The caspase-3 activating action was examined using Ac-DEVD-AMC, a caspase-3 specific substrate. […] Further, by the addition of neuropeptide PACAP, an incomplete, approximately 50% suppressive effect was shown. […] Taking into consideration that this suppressive action is not complete, other action mechanisms may also be involved.

Row | Substance | degree of neuroprotective action against abnormal prion (106-126) (PC12 cells [1]) | Neuroprotective action (PC12 cells [2]; VIP-related neuropeptide 10^−7 M, amyloid (50 μM), cell survival rate vs no peptide) | neuroprotective action against cell death by β-amyloid (cell survival rate) (PC12 cells [2]; co-existing with β-amyloid, PACAP27 10^−9 M, FIG. 5) | relationship between concentration and neuroprotective action against β-amyloid (PC12 cells [2]; β-amyloid, FIG. 6) | cell death (lactate dehydrogenase released to the medium) (PC12 cells [3]) | degree of neuroprotective action against abnormal prion (106-126) (PC12 cells [1]; 50 μM abnormal prion (106-126), neuropeptides at various concentrations, FIG. 2) | neuroprotective action relative to that of VIP (PC12 cells [2]; β-amyloid, FIG. 6) | concentration at which the neuroprotective effect was strongest (PC12 cells [2]; β-amyloid, various concentrations, FIG. 6) | suppressive effect on caspase-3 activation by β-amyloid (caspase-3)
1 | VIP (HSDAVFTDNYTRLRKQMAVKKYLNSILN) [Peptide 3] | showed neuroprotective action at concentrations higher than that of PACAP | + | showed neuroprotective action against β-amyloid although the effect was weaker than that of PACAP27 | showed strong neuroprotective action at relatively high concentrations | – | – | – | – | –
2 | Prion (106-126) | – | – | – | – | cell death occurs depending on the concentration | – | – | – | –
3 | Pituitary Adenylate Cyclase Activating Polypeptide [PACAP] | – | – | – | showed neuroprotective action even at an extremely low concentration | – | even at an extremely low concentrations, PACAP showed a certain degree of neuroprotective action | at least 1×10^4 fold | 10^−9 to 10^−13 M | approximately 50%
